Legend:
Capan-2 cells = experiment: Cell viability assessment (CellTiter-Glo); format: cell-based
[1] = tested on: EGFR and its downstream signaling in HMEC cells; experiment: Western blot of EGFR and downstream signaling in normal cells; format: cell-based, human; settings: 24 h
Procedure: For comparison, the agent was also tested in a normal cell line, human mammary epithelial cells (HMECs). […] Without wishing to be bound by any particular theory, it is believed that a Grp94 selective inhibitor may therefore have a better therapeutic index than a direct RTK modulator (i.e. TKI or antibody) because it will act on the RTK only in conditions of oncogenic overexpression (see EGFR in TNBC cell lines vs HMEC). […] Approximately half of cases of triple-negative breast cancer (TNBC) and inflammatory breast cancer (IBC) overexpress EGFR, nonetheless clinical trials testing EGFR inhibitors reported lack of or limited benefit (Masuda H. et al. Breast Cancer Res Treat. 2012 November; 136(2):331-45). Without wishing to be bound by any particular theory, it is believed that such ineffectiveness is due to a crosstalk between EGFR and c-Met or other RTKs, because strategies that knocked down EGFR either by siRNA or by mixtures of antibodies that induces robust degradation of EGFR, led to reduced viability of TNBC cells (Mueller et al., Breast Cancer Res. 2012 Jul. 12; 14(4):R^104; Ferraro et al., Proc Natl Acad Sci USA. 2013 Jan. 29; 110(5):1815-20. PMID:23319610). […] Protein concentrations were determined using BCA kit (Pierce) according to the manufacturer's instructions. […]

[2] = tested on: Hsp70 induction in HEK293 cells; experiment: Hsp70 induction in HA-TLR9 transfected HEK293 cells; format: cell-based, human; settings: 24 h
Procedure: Cell fractionation and immunoblotting. Cells were either treated with DMSO (vehicle) or indicated compounds for 24 hr and lysed in RIPA buffer (50 mM Tris-HCl, pH 7.4, 150 mM NaCl, 0.5% sodium deoxycholate and 0.5% NP40) supplemented with cocktail protease inhibitors (Roche) to produce whole cell lysates. Lysates for cytosol and membrane fractions were harvested using ProteoExtract Subcellular Proteome Extraction Kit (Calbiochem) following the manufacturer's instructions. Protein concentrations were determined using BCA kit (Pierce) according to the manufacturer's instructions. The protein lysates ([…]) were electrophoretically resolved by SDS-PAGE, transferred onto nitrocellulose membranes and probed with the indicated primary antibodies against: HER^2 (Zymed, 28004), Hsp70 (Stressgen, SPA-810), Grp94 (Stressgen, SPA-850), Hsp90α (Abcam, Ab2928), Hsp90β (StressMarq, SMC-107B), Grp78 (Cell Signaling, 3183), Raf-1 (Santa Cruz, sc-133), phospho-Raf-1 (Cell Signaling, 9421), MEK1/2 (Cell Signaling, 8727), phospho-MEK1/2 (Cell Signaling, 9154), ERK1/2 (Cell Signaling, 4695), phospho-ERK1/2 (Cell Signaling, 4370), AKT (Cell Signaling, 9272), GM130 (Cell Signaling, 2296), Flotillin 2 (Cell Signaling, 3436), Histone H4 (Cell Signaling, 2592), Histone H1 (Santa Cruz, sc-8030), Caspase 3 (Cell Signaling, 9665), cleaved PARP (Promega, G7341), a-tubulin (Sigma, T5168) and 3-actin (Sigma, A1978). After washing off the excess antibodies, the membranes were incubated with the corresponding horseradish peroxidase (HRP) conjugated secondary antibody. Blots were visualized by autoradiography using the Enhanced Chemiluminescence Detection System (GE Healthcare) according to manufacturer's instructions. […]
TLR^9-trafficking assay (Yang, Y. et al. Heat shock protein gp96 is a master chaperone for toll-like receptors and is important in the innate function of macrophages. Immunity 26, 215-26 (2007)). […] Fluorescence intensity was quantified using MetaMorph Microscopy Automation and Image Analysis Software (Molecular Devices Inc.) and normalized to the cell number.

CC(C)NCCCn1c(Sc2cc(Cl)cc(Cl)c2)nc2c(N)ncnc21 [PU-WS13]
effect on cell growth (Capan-2 cells): no effect | effect on EGFR and its downstream signaling in normal cells [1]: does not affect EGFR and its downstream signaling | Hsp70 induction [2]: fails to induce Hsp70

Reference: US12600725B2 (Memorial Sloan-Kettering Cancer Center, priority 2013, dated 2026)
